{
  "source": "ChEMBL document CHEMBL1159126",
  "about": "“Salicylanilide carbamates: antitubercular agents active against multidrug-resistant Mycobacterium tuberculosis strains” (Bioorg Med Chem, 2010)",
  "assay_in_all_cases": "microbe, parasite or virus in culture",
  "key": {"[1]": {"test_system": "Mycobacterium tuberculosis", "settings": "isolate Praha 1, 504 h"}, "[2]": {"test_system": "Mycobacterium tuberculosis", "settings": "isolate 7357/98, 336 h"}, "[3]": {"test_system": "Mycobacterium tuberculosis", "settings": "isolate 9449/06, 336 h"}, "[4]": {"test_system": "Mycobacterium tuberculosis", "settings": "isolate Praha 1, 336 h"}, "[5]": {"test_system": "Mycobacterium tuberculosis", "settings": "isolate Praha 128, 504 h"}, "[6]": {"test_system": "Mycobacterium tuberculosis", "settings": "isolate 2092/05, 336 h"}, "[7]": {"test_system": "Mycobacterium tuberculosis", "settings": "isolate Praha 128, 336 h"}, "[8]": {"test_system": "Mycobacterium tuberculosis", "settings": "isolate 2092/05, 504 h"}, "[9]": {"test_system": "Mycobacterium tuberculosis", "settings": "isolate 7357/98, 504 h"}, "[10]": {"test_system": "Mycobacterium tuberculosis", "settings": "isolate 9449/06, 504 h"}},
  "data": [
    {"smiles": "NNC(=O)c1ccncc1", "note": "[ISONIAZID]", "values": [
      {"measurement": "MIC", "setting": "[1]", "result": 16, "unit": "µM"},
      {"measurement": "MIC", "setting": "[2]", "result": 16, "unit": "µM"},
      {"measurement": "MIC", "setting": "[3]", "result": 16, "unit": "µM"},
      {"measurement": "MIC", "setting": "[4]", "result": 16, "unit": "µM"},
      {"measurement": "MIC", "setting": "[5]", "result": 16, "unit": "µM"},
      {"measurement": "MIC", "setting": "[6]", "result": 16, "unit": "µM"},
      {"measurement": "MIC", "setting": "[7]", "result": 16, "unit": "µM"},
      {"measurement": "MIC", "setting": "[8]", "result": 16, "unit": "µM"},
      {"measurement": "MIC", "setting": "[9]", "result": 16, "unit": "µM"},
      {"measurement": "MIC", "setting": "[10]", "result": 16, "unit": "µM"}
    ]},
    {"smiles": "CCCCCCNC(=O)Oc1ccc(Cl)cc1C(=O)Nc1cccc(Cl)c1", "values": [
      {"measurement": "MIC", "setting": "[1]", "result": 2, "unit": "µM"},
      {"measurement": "MIC", "setting": "[2]", "result": 1, "unit": "µM"},
      {"measurement": "MIC", "setting": "[3]", "result": 1, "unit": "µM"},
      {"measurement": "MIC", "setting": "[4]", "result": 1, "unit": "µM"},
      {"measurement": "MIC", "setting": "[5]", "result": 2, "unit": "µM"},
      {"measurement": "MIC", "setting": "[6]", "result": 1, "unit": "µM"},
      {"measurement": "MIC", "setting": "[7]", "result": 1, "unit": "µM"},
      {"measurement": "MIC", "setting": "[8]", "result": 2, "unit": "µM"},
      {"measurement": "MIC", "setting": "[9]", "result": 1, "unit": "µM"},
      {"measurement": "MIC", "setting": "[10]", "result": 1, "unit": "µM"}
    ]},
    {"smiles": "CCNC(=O)Oc1ccc(Cl)cc1C(=O)Nc1ccc(Cl)c(Cl)c1", "values": [
      {"measurement": "MIC", "setting": "[1]", "result": 1, "unit": "µM"},
      {"measurement": "MIC", "setting": "[2]", "result": 0.5, "unit": "µM"},
      {"measurement": "MIC", "setting": "[3]", "result": 0.5, "unit": "µM"},
      {"measurement": "MIC", "setting": "[4]", "result": 0.5, "unit": "µM"},
      {"measurement": "MIC", "setting": "[5]", "result": 0.5, "unit": "µM"},
      {"measurement": "MIC", "setting": "[6]", "result": 0.5, "unit": "µM"},
      {"measurement": "MIC", "setting": "[7]", "result": 0.5, "unit": "µM"},
      {"measurement": "MIC", "setting": "[8]", "result": 0.5, "unit": "µM"},
      {"measurement": "MIC", "setting": "[9]", "result": 1, "unit": "µM"},
      {"measurement": "MIC", "setting": "[10]", "result": 0.5, "unit": "µM"}
    ]},
    {"smiles": "CCCCCNC(=O)Oc1ccc(Cl)cc1C(=O)Nc1ccc(Cl)c(Cl)c1", "values": [
      {"measurement": "MIC", "setting": "[1]", "result": 1, "unit": "µM"},
      {"measurement": "MIC", "setting": "[2]", "result": 0.5, "unit": "µM"},
      {"measurement": "MIC", "setting": "[3]", "result": 0.5, "unit": "µM"},
      {"measurement": "MIC", "setting": "[4]", "result": 0.5, "unit": "µM"},
      {"measurement": "MIC", "setting": "[5]", "result": 0.5, "unit": "µM"},
      {"measurement": "MIC", "setting": "[6]", "result": 0.5, "unit": "µM"},
      {"measurement": "MIC", "setting": "[7]", "result": 0.5, "unit": "µM"},
      {"measurement": "MIC", "setting": "[8]", "result": 0.5, "unit": "µM"},
      {"measurement": "MIC", "setting": "[9]", "result": 0.5, "unit": "µM"},
      {"measurement": "MIC", "setting": "[10]", "result": 0.5, "unit": "µM"}
    ]},
    {"smiles": "CCCCCNC(=O)Oc1ccc(Cl)cc1C(=O)Nc1ccc(Cl)cc1", "values": [
      {"measurement": "MIC", "setting": "[1]", "result": 2, "unit": "µM"},
      {"measurement": "MIC", "setting": "[2]", "result": 1, "unit": "µM"},
      {"measurement": "MIC", "setting": "[3]", "result": 1, "unit": "µM"},
      {"measurement": "MIC", "setting": "[4]", "result": 1, "unit": "µM"},
      {"measurement": "MIC", "setting": "[5]", "result": 1, "unit": "µM"},
      {"measurement": "MIC", "setting": "[6]", "result": 1, "unit": "µM"},
      {"measurement": "MIC", "setting": "[7]", "result": 1, "unit": "µM"},
      {"measurement": "MIC", "setting": "[8]", "result": 1, "unit": "µM"},
      {"measurement": "MIC", "setting": "[9]", "result": 2, "unit": "µM"},
      {"measurement": "MIC", "setting": "[10]", "result": 1, "unit": "µM"}
    ]},
    {"smiles": "CCCCNC(=O)Oc1ccc(Cl)cc1C(=O)Nc1ccc(Cl)c(Cl)c1", "values": [
      {"measurement": "MIC", "setting": "[1]", "result": 1, "unit": "µM"},
      {"measurement": "MIC", "setting": "[2]", "result": 0.5, "unit": "µM"},
      {"measurement": "MIC", "setting": "[3]", "result": 1, "unit": "µM"},
      {"measurement": "MIC", "setting": "[4]", "result": 0.5, "unit": "µM"},
      {"measurement": "MIC", "setting": "[5]", "result": 1, "unit": "µM"},
      {"measurement": "MIC", "setting": "[6]", "result": 0.5, "unit": "µM"},
      {"measurement": "MIC", "setting": "[7]", "result": 0.5, "unit": "µM"},
      {"measurement": "MIC", "setting": "[8]", "result": 1, "unit": "µM"},
      {"measurement": "MIC", "setting": "[9]", "result": 1, "unit": "µM"},
      {"measurement": "MIC", "setting": "[10]", "result": 0.5, "unit": "µM"}
    ]},
    {"smiles": "CCCCCCCCNC(=O)Oc1ccc(Cl)cc1C(=O)Nc1ccc(Cl)c(Cl)c1", "values": [
      {"measurement": "MIC", "setting": "[1]", "result": 2, "unit": "µM"},
      {"measurement": "MIC", "setting": "[2]", "result": 1, "unit": "µM"},
      {"measurement": "MIC", "setting": "[3]", "result": 1, "unit": "µM"},
      {"measurement": "MIC", "setting": "[4]", "result": 1, "unit": "µM"},
      {"measurement": "MIC", "setting": "[5]", "result": 1, "unit": "µM"},
      {"measurement": "MIC", "setting": "[6]", "result": 0.5, "unit": "µM"},
      {"measurement": "MIC", "setting": "[7]", "result": 0.5, "unit": "µM"},
      {"measurement": "MIC", "setting": "[8]", "result": 1, "unit": "µM"},
      {"measurement": "MIC", "setting": "[9]", "result": 1, "unit": "µM"},
      {"measurement": "MIC", "setting": "[10]", "result": 0.5, "unit": "µM"}
    ]},
    {"smiles": "CCCCCCNC(=O)Oc1ccc(Cl)cc1C(=O)Nc1ccc(Cl)c(Cl)c1", "values": [
      {"measurement": "MIC", "setting": "[1]", "result": 1, "unit": "µM"},
      {"measurement": "MIC", "setting": "[2]", "result": 0.5, "unit": "µM"},
      {"measurement": "MIC", "setting": "[3]", "result": 0.5, "unit": "µM"},
      {"measurement": "MIC", "setting": "[4]", "result": 0.5, "unit": "µM"},
      {"measurement": "MIC", "setting": "[5]", "result": 0.5, "unit": "µM"},
      {"measurement": "MIC", "setting": "[6]", "result": 0.5, "unit": "µM"},
      {"measurement": "MIC", "setting": "[7]", "result": 0.5, "unit": "µM"},
      {"measurement": "MIC", "setting": "[8]", "result": 0.5, "unit": "µM"},
      {"measurement": "MIC", "setting": "[9]", "result": 1, "unit": "µM"},
      {"measurement": "MIC", "setting": "[10]", "result": 0.5, "unit": "µM"}
    ]},
    {"smiles": "CCCCCCCNC(=O)Oc1ccc(Cl)cc1C(=O)Nc1ccc(Cl)c(Cl)c1", "values": [
      {"measurement": "MIC", "setting": "[1]", "result": 1, "unit": "µM"},
      {"measurement": "MIC", "setting": "[2]", "result": 0.5, "unit": "µM"},
      {"measurement": "MIC", "setting": "[3]", "result": 0.5, "unit": "µM"},
      {"measurement": "MIC", "setting": "[4]", "result": 0.5, "unit": "µM"},
      {"measurement": "MIC", "setting": "[5]", "result": 1, "unit": "µM"},
      {"measurement": "MIC", "setting": "[6]", "result": 0.5, "unit": "µM"},
      {"measurement": "MIC", "setting": "[7]", "result": 0.5, "unit": "µM"},
      {"measurement": "MIC", "setting": "[8]", "result": 1, "unit": "µM"},
      {"measurement": "MIC", "setting": "[9]", "result": 0.5, "unit": "µM"},
      {"measurement": "MIC", "setting": "[10]", "result": 0.5, "unit": "µM"}
    ]}
  ]
}
